Experimental data reported in patent publication US20070281992A1, “COMBINATION OF GYRASE B INHIBITORS AND PROTEIN SYNTHESIS INHIBITORS AND USES THEREOF” (priority 2006, published 2007).
Like-named read-outs stand apart in the source and are kept apart here.

How the values were obtained:
Assay type in all cases: cell-based
Conditions in all cases: for MIC: read-out: Minimal Inhibitory Concentration
[1] = test system: Unconfirmed Vancomycin-intermediate Staphylococcus epidermidis Isolates; test: MIC assay (NCCLS broth dilution), unconfirmed VISE isolates
Method: (§1) Antibiotics: novobiocin, tetracycline, minocycline, oxacillin, and vancomycin were all purchased from Sigma-Aldrich. Linezolid was obtained from Pfizer, Inc. Novobiocin/tetracycline and novobiocin/minocycline were tested in a 2.5:1 ratio to mimic the serum levels. (Vavra, J. J., 1967, Development of resistance to novobiocin, tetracycline, and novobiocin-tetracycline combinations in Staphylococcus aureus populations, J. Bacteriol 93(3):801). Compounds were tested across a concentration range consisting of 11 two-fold serial dilutions of test agent.
(§2) Stock solutions were prepared in sterile deionized water; novobiocin stock concentration was 1600 μg/mL and all other drugs stock solutions were prepared at 640 μg/mL. The stock solutions were allowed to sit at room temperature for one hour to auto-sterilize prior to use in the test. All compounds were in solution in water. The control agent was vancomycin hydrochloride, Sigma Chemical Lot # 015K0825.
(§3) The test organisms for the assay were 52 MSSA, 52 MRSA, 8 VISA, 7 VISE, and 3 LRSA isolates. Quality control strains included Staphylococcus aureus 0100 (ATCC 29213) and Enterococcus faecalis (ATCC 29212).
(§4) The MIC assay was performed according to published NCCLS guidelines. (National Committee for Clinical Laboratory Standards, Methods for Dilution Antimicrobial Susceptibility Tests for Bacteria that Grow Aerobically; Approved Standard-Sixth Edition, NCCLS Document M7-A6 [ISBN 1-56238-486-4], NCCLS, 940 West Valley Road, Suite 1400, Wayne, Pa. 19087-1898 USA, 2003). The test medium was Mueller Hinton II Broth for all organisms.

[2] = test system: Vancomycin-intermediate Staphylococcus aureus Isolates; test: MIC assay (NCCLS broth dilution), VISA isolates
Method: as §1, §2, §3, §4

[3] = test system: Linezolid-Resistant Staphylococcus aureus Isolates; test: MIC assay (NCCLS broth dilution), LRSA isolates
Method: as §1, §2, §3, §4

[4] = test system: Vancomycin-intermediate Staphylococcus epidermidis Isolates; test: MIC assay (NCCLS broth dilution), VISE isolates
Method: as §1, §2, §3, §4

[5] = test system: Methicillin-Susceptible Staphylococcus aureus Isolates; test: MIC assay (NCCLS broth dilution), MSSA clinical isolates
Method: as §1, §2, §3, §4

[6] = test system: Unconfirmed Vancomycin-intermediate Staphylococcus aureus Isolates; test: MIC assay (NCCLS broth dilution), unconfirmed VISA isolates
Method: as §1, §2, §3, §4

[7] = Staphylococcus aureus, 52 MSSA isolates, combinations at 2.5:1, given as NB/partner

SMILES: CN(C)c1ccc(O)c2c1C[C@H]1C[C@H]3[C@H](N(C)C)C(O)=C(C(N)=O)C(=O)[C@@]3(O)C(O)=C1C2=O [MI, minocycline]
- MIC Range ([1]; 3 unconfirmed VISE isolates, combinations at 2.5:1): 0.12 to 0.25 µg/mL
- MIC ([1]; Staphylococcus epidermidis, Unconfirmed VISE isolate 2024, 09MAR06): 0.25 µg/mL
- MIC ([1]; Staphylococcus epidermidis, Unconfirmed VISE isolate 2025, 09MAR06): 0.12 µg/mL
- MIC ([1]; Staphylococcus epidermidis, Unconfirmed VISE isolate 2026, 03MAR06): 0.25 µg/mL
- MIC50 ([1]; Staphylococcus epidermidis, 3 unconfirmed VISE isolates, combinations at 2.5:1): 0.25 µg/mL
- MIC Range ([2]; 2 VISA isolates, combinations at 2.5:1, given as NB/partner): .06 to 25 µg/mL
- MIC ([2]; Staphylococcus aureus, VISA isolate 2012, 03MAR06): 0.25 µg/mL
- MIC ([2]; Staphylococcus aureus, VISA isolate 2018, 03MAR06): 0.06 µg/mL
- MIC50 ([2]; Staphylococcus aureus, 2 VISA isolates, combinations at 2.5:1, given as NB/partner): 0.06 µg/mL
- MIC Range ([3]; 3 LRSA isolates, combinations at 2.5:1): 0.12 to 2 µg/mL
- MIC ([3]; Staphylococcus aureus, LRSA isolate 1651, 24FEB06): 0.12 µg/mL
- MIC ([3]; Staphylococcus aureus, LRSA isolate 1652, 24FEB06): 0.12 µg/mL
- MIC ([3]; Staphylococcus aureus, LRSA isolate 1725, 24FEB06): 2 µg/mL
- MIC50 ([3]; Staphylococcus aureus, 3 LRSA isolates, combinations at 2.5:1): 0.12 µg/mL
- MIC Range ([4]; 4 VISE isolates, combinations at 2.5:1): .06 to .25 µg/mL
- MIC ([4]; Staphylococcus epidermidis, VISE isolate 2020, 09MAR06): 0.12 µg/mL
- MIC ([4]; Staphylococcus epidermidis, VISE isolate 2021, 09MAR06): 0.06 µg/mL
- MIC ([4]; Staphylococcus epidermidis, VISE isolate 2022, 03MAR06): 0.25 µg/mL
- MIC ([4]; Staphylococcus epidermidis, VISE isolate 2023, 03MAR06): 0.06 µg/mL
- MIC50 ([4]; Staphylococcus epidermidis, 4 VISE isolates, combinations at 2.5:1): 0.06 µg/mL
- MIC Range ([5]; 52 MSSA isolates, Mueller Hinton II Broth, combinations at 2.5:1, given as NB/partner): .06 to .12 µg/mL
- MIC ([5]; Staphylococcus aureus, MSSA isolate 133, 03MAR06): 0.06 µg/mL
- MIC ([5]; Staphylococcus aureus, MSSA isolate 134, 03MAR06): 0.06 µg/mL
- MIC ([5]; Staphylococcus aureus, MSSA isolate 135, 03MAR06): 0.06 µg/mL
- MIC ([5]; Staphylococcus aureus, MSSA isolate 753, 22FEB06): 0.12 µg/mL
- MIC ([5]; Staphylococcus aureus, MSSA isolate 754, 22FEB06): 0.12 µg/mL
- MIC ([5]; Staphylococcus aureus, MSSA isolate 754, 24FEB06): 0.12 µg/mL
- MIC ([5]; Staphylococcus aureus, MSSA isolate 755, 22FEB06): 0.12 µg/mL
- MIC ([5]; Staphylococcus aureus, MSSA isolate 756, 03MAR06): 0.06 µg/mL
- MIC ([5]; Staphylococcus aureus, MSSA isolate 779, 22FEB06): 0.12 µg/mL
- MIC ([5]; Staphylococcus aureus, MSSA isolate 780, 03MAR06): 0.12 µg/mL
- MIC ([5]; Staphylococcus aureus, MSSA isolate 781, 03MAR06): 0.06 µg/mL
- MIC ([5]; Staphylococcus aureus, MSSA isolate 782, 22FEB06): 0.12 µg/mL
- MIC ([5]; Staphylococcus aureus, MSSA isolate 783, 22FEB06): 0.12 µg/mL
- MIC ([5]; Staphylococcus aureus, MSSA isolate 784, 22FEB06): 0.12 µg/mL
- MIC ([5]; Staphylococcus aureus, MSSA isolate 785, 22FEB06): 0.12 µg/mL
- MIC ([5]; Staphylococcus aureus, MSSA isolate 786, 22FEB06): 0.12 µg/mL
- MIC ([5]; Staphylococcus aureus, MSSA isolate 787, 22FEB06): 0.12 µg/mL
- MIC ([5]; Staphylococcus aureus, MSSA isolate 788, 22FEB06): 0.12 µg/mL
- MIC ([5]; Staphylococcus aureus, MSSA isolate 789, 24FEB06): 0.12 µg/mL
- MIC ([5]; Staphylococcus aureus, MSSA isolate 790, 24FEB06): 0.12 µg/mL
- MIC ([5]; Staphylococcus aureus, MSSA isolate 791, 24FEB06): 0.12 µg/mL
- MIC ([5]; Staphylococcus aureus, MSSA isolate 792, 03MAR06): 0.06 µg/mL
- MIC ([5]; Staphylococcus aureus, MSSA isolate 793, 24FEB06): 0.12 µg/mL
- MIC ([5]; Staphylococcus aureus, MSSA isolate 794, 24FEB06): 0.12 µg/mL
- MIC ([5]; Staphylococcus aureus, MSSA isolate 994, 22FEB06): 0.12 µg/mL
- MIC ([5]; Staphylococcus aureus, MSSA isolate 995, 03MAR06): 0.12 µg/mL
- MIC ([5]; Staphylococcus aureus, MSSA isolate 996, 22FEB06): 0.06 µg/mL
- MIC ([5]; Staphylococcus aureus, MSSA isolate 997, 22FEB06): 0.12 µg/mL
- MIC ([5]; Staphylococcus aureus, MSSA isolate 998, 03MAR06): 0.06 µg/mL
- MIC ([5]; Staphylococcus aureus, MSSA isolate 999, 22FEB06): 0.12 µg/mL
- MIC ([5]; Staphylococcus aureus, MSSA isolate 1000, 24FEB06): 0.12 µg/mL
- MIC ([5]; Staphylococcus aureus, MSSA isolate 1001, 24FEB06): 0.12 µg/mL
- MIC ([5]; Staphylococcus aureus, MSSA isolate 1002, 24FEB06): 0.12 µg/mL
- MIC ([5]; Staphylococcus aureus, MSSA isolate 1003, 03MAR06): 0.06 µg/mL
- MIC ([5]; Staphylococcus aureus, MSSA isolate 1005, 24FEB06): 0.06 µg/mL
- MIC ([5]; Staphylococcus aureus, MSSA isolate 1006, 24FEB06): 0.12 µg/mL
- MIC ([5]; Staphylococcus aureus, MSSA isolate 1007, 24FEB06): 0.12 µg/mL
- MIC ([5]; Staphylococcus aureus, MSSA isolate 1008, 24FEB06): 0.06 µg/mL
- MIC ([5]; Staphylococcus aureus, MSSA isolate 1009, 24FEB06): 0.12 µg/mL
- MIC ([5]; Staphylococcus aureus, MSSA isolate 1131, 24FEB06): 0.06 µg/mL
- MIC ([5]; Staphylococcus aureus, MSSA isolate 1132, 03MAR06): 0.06 µg/mL
- MIC ([5]; Staphylococcus aureus, MSSA isolate 1133, 24FEB06): 0.12 µg/mL
- MIC ([5]; Staphylococcus aureus, MSSA isolate 1134, 24FEB06): 0.12 µg/mL
- MIC ([5]; Staphylococcus aureus, MSSA isolate 1654, 03MAR06): 0.12 µg/mL
- MIC ([5]; Staphylococcus aureus, MSSA isolate 1656, 03MAR06): 0.06 µg/mL
- MIC ([5]; Staphylococcus aureus, MSSA isolate 1662, 03MAR06): 0.06 µg/mL
- MIC ([5]; Staphylococcus aureus, MSSA isolate 1663, 03MAR06): 0.12 µg/mL
- MIC ([5]; Staphylococcus aureus, MSSA isolate 1666, 03MAR06): 0.06 µg/mL
- MIC ([5]; Staphylococcus aureus, MSSA isolate 1667, 03MAR06): 0.12 µg/mL
- MIC ([5]; Staphylococcus aureus, MSSA isolate 1668, 03MAR06): 0.06 µg/mL
- MIC ([5]; Staphylococcus aureus, MSSA isolate 1671, 03MAR06): 0.06 µg/mL
- MIC ([5]; Staphylococcus aureus, MSSA isolate 1728, 03MAR06): 0.06 µg/mL
- MIC ([5]; Staphylococcus aureus, MSSA isolate 1728, retest 09MAR06): 0.06 µg/mL
- MIC50 [5, 7]: 0.12 µg/mL
- MIC90 [5, 7]: 0.12 µg/mL
- MIC Range ([6]; 6 unconfirmed VISA isolates (vancomycin MIC 4 ug/ml), combinations at 2.5:1): ≦.015-2 μg/ml
- MIC ([6]; Staphylococcus aureus, Unconfirmed VISA isolate 2013, 03MAR06): 0.12 µg/mL
- MIC ([6]; Staphylococcus aureus, Unconfirmed VISA isolate 2014, 03MAR06): 2 µg/mL
- MIC ([6]; Staphylococcus aureus, Unconfirmed VISA isolate 2015, 03MAR06): < 0.015 µg/mL
- MIC ([6]; Staphylococcus aureus, Unconfirmed VISA isolate 2016, 03MAR06): 0.06 µg/mL
- MIC ([6]; Staphylococcus aureus, Unconfirmed VISA isolate 2017, 03MAR06): 0.03 µg/mL
- MIC ([6]; Staphylococcus aureus, Unconfirmed VISA isolate 2019, 03MAR06): 2 µg/mL
- MIC50 ([6]; Staphylococcus aureus, 6 unconfirmed VISA isolates (vancomycin MIC 4 ug/ml), combinations at 2.5:1): 0.06 µg/mL
